According to US12187742B2 (XRAD Therapeutics, Inc., priority 2018, dated 2025):
Where a name gives a salt, the structure may show the parent alone.

Target: ATM (Homo sapiens (Human), UniProt Q13315)
Assay: ATM in Cell Western Assay (pKAP1 in etoposide-treated MCF-7 cells)
Assay type: cell-based
Conditions: MCF-7 cells, etoposide 100 μM, 1 hr, pKAP1 readout
Summary of the method: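 Cells received compounds in a 10-dose, 3-fold series from a 1 μM final top concentration, then 100 μM etoposide, for 1 hr at 37° C. They were then fixed with paraformaldehyde and permeabilized with 0.1% Triton X-100. After immunostaining, plates were scanned on an infrared imager.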

ATM, sequence (Q13315 whole entry): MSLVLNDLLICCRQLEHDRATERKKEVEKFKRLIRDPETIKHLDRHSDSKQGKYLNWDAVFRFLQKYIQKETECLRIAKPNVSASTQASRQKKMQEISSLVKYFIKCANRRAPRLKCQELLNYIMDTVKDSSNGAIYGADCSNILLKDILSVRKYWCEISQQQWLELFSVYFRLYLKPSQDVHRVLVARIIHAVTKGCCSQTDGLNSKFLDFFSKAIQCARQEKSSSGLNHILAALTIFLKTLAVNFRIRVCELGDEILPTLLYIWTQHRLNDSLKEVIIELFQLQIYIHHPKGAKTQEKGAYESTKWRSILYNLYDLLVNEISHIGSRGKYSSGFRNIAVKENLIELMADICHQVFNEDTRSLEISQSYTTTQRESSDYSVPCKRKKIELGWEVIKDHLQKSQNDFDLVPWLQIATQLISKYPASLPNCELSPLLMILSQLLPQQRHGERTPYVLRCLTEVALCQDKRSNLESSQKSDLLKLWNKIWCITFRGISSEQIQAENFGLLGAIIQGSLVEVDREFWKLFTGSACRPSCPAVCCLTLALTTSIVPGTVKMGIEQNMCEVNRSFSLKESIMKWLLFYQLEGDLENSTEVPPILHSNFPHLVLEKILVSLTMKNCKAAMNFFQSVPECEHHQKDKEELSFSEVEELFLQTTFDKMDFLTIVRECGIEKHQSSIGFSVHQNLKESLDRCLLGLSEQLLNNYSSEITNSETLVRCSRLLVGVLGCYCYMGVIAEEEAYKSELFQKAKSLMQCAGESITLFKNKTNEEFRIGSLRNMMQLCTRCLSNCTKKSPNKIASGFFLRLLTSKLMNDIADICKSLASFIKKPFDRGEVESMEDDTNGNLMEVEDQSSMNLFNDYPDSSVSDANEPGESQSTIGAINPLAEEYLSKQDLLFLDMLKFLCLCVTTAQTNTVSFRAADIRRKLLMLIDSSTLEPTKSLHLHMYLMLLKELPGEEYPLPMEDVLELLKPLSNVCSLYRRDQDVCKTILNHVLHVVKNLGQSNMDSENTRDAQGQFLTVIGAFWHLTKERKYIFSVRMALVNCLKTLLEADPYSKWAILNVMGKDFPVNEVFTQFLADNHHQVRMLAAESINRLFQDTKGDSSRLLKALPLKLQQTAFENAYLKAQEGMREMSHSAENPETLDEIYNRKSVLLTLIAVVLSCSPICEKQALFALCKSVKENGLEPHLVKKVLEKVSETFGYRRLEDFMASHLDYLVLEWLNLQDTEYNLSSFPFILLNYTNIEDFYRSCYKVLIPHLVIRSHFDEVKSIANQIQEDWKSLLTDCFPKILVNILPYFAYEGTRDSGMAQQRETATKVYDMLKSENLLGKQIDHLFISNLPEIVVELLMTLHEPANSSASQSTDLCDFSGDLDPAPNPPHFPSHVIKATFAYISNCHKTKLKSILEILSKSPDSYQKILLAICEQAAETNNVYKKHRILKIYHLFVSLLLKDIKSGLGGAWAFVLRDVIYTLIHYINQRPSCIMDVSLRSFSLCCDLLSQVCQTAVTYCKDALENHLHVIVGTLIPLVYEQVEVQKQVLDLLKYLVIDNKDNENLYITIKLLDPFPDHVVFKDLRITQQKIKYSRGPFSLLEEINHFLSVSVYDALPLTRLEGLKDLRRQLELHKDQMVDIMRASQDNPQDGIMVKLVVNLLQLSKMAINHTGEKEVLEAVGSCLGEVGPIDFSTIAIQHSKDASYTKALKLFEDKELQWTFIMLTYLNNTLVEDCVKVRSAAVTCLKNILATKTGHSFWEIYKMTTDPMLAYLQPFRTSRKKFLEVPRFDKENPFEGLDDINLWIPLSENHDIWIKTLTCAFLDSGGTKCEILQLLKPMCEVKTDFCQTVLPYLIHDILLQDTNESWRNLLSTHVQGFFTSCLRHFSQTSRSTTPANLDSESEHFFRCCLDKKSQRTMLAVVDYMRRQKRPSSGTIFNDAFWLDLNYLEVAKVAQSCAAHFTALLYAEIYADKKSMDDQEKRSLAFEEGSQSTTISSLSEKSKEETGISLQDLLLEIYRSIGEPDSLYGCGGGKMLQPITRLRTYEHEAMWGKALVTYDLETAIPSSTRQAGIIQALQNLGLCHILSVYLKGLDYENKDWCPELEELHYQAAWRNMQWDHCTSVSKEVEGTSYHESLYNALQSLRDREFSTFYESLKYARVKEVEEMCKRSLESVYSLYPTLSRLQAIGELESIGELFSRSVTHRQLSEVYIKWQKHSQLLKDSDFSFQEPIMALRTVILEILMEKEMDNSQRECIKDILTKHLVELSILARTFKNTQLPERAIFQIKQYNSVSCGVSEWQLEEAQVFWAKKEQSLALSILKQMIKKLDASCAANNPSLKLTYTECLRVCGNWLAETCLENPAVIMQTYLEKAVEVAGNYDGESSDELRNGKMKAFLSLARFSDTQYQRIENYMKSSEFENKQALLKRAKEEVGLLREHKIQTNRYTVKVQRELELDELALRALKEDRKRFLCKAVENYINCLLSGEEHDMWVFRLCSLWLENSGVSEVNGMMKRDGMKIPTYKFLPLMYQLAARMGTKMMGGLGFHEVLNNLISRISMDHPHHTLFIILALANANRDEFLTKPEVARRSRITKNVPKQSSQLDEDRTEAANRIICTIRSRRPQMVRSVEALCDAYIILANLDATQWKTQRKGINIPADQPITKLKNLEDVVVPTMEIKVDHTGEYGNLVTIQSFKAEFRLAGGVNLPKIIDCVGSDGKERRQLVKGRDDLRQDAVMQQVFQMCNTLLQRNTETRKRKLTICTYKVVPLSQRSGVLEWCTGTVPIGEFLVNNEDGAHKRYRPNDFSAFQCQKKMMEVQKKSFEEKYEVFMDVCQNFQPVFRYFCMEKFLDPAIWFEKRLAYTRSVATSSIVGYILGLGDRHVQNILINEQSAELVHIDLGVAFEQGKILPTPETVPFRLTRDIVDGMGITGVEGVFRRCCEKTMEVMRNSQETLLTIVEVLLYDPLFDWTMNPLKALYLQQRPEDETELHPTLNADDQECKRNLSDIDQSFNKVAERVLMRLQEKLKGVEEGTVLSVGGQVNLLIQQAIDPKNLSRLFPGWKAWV

IC50	Structure (SMILES)
> 0.1 µM	CN1C(=O)C2(CCC2)c2c1cnc1ccc(-c3cnc(OCC4CNC4)c(NS(C)(=O)=O)c3)cc21 [Example 310, N-(2-(Azetidin-3-ylmethoxy)-5-(3′-methyl-2′-oxo-2′,3′-dihydrospiro[cyclobutane-1,1′-pyrrole[2,3-c]quinolin]-8′-yl)pyridin-3-yl) methanesulfonamide hydrochloride]
0.001 to 0.1 µM	CN1C(=O)C2(CCC2)c2c1cnc1ccc(-c3cnc(OCCCN4CCCCC4)c(NS(=O)(=O)CF)c3)cc21 [Example 301, 1-Fluoro-N-(5-(3′-methyl-2′-oxo-2′,3′-dihydrospiro[cyclobutane-1,1′-pyrrolo[2,3-c]quinolin]-8-yl)-2-(3-(piperidin-1-yl)propoxy)pyridin-3-yl) methanesulfonamide]
> 0.1 µM	COc1ncc(-c2ccc3ncc(Nc4ccn(C)n4)c(=O)n3c2)cc1NS(=O)(=O)c1ccccc1 [Example 16, N-(2-Methoxy-5-(3-((1-methyl-1H-pyrazol-3-yl)amino)-4-oxo-4H-pyrido[1,2-a]pyrimidin-7-yl)pyridin-3-yl)benzenesulfonamide]

Same assay, conditions: pKAP1 in etoposide-treated MCF-7 cells

Structure (SMILES)	IC50
CC(C)NCCOc1ncc(-c2cc3c(cc2F)ncc2c3[C@]3(C[C@H](N4CCCC4)C3)C(=O)N2C)cc1NS(C)(=O)=O [Example 467, cis-N-(5-(7′-Fluoro-3′-methyl-2′-oxo-3-(pyrrolidin-1-yl)-2′,3′-dihydrospiro[cyclobutane-1,1′-pyrrolo[2,3-c]quinolin]-8′-yl)-2-(2-(isopropylamino)ethoxy)pyridin-3-yl)methanesulfonamide]	0.001 to 0.1 µM
CNC(=O)c1cc(-c2ccc3ncc4c(c3c2)C2(CCC2)C(=O)N4C)cc(NS(C)(=O)=O)c1OCCCN(C)C [Example 565, 2-(3-(Dimethylamino)propoxy)-N-methyl-5-(3′-methyl-2′-oxo-2′,3′-dihydrospiro[cyclobutane-1,1′-pyrrolo[2,3-c]quinolin]-8′-yl)-3-(methylsulfonamido)benzamide]	> 0.1 µM
CC(C)NCCOc1ncc(-c2cc3c4c(nnc3cc2F)N(C)C(=O)C42CCC2)cc1NS(C)(=O)=O [Example 558, N-(5-(7′-Fluoro-3′-methyl-2′-oxo-2′,3′-dihydrospiro[cyclobutane-1,1′-pyrrolo [2,3-c]cinnolin]-8′-yl)-2-(2-(isopropylamino)ethoxy)pyridin-3-yl)methanesulfonamide]	> 0.1 µM
CN1C(=O)C2(CCC2)c2c1cnc1ccc(-c3cnc(N4CC5CC(C4)N5)c(NS(C)(=O)=O)c3)cc21 [Example 360, N-(2-(3,6-Diazabicyclo[3.1.1]heptan-3-yl)-5-(3′-methyl-2′-oxo-2′,3′-dihydrospiro[cyclobutane-1,1′-pyrrolo[2,3-c]quinolin]-8′-yl)pyridin-3-yl) methanesulfonamide formate]	> 0.1 µM
CN[C@H]1C[C@@]2(C1)C(=O)N(C)c1cnc3cc(F)c(-c4cnc(OCCNC(C)C)c(NS(C)(=O)=O)c4)cc3c12 [Example 473, trans-N-(5-(7′-Fluoro-3′-methyl-3-(methylamino)-2′-oxo-2′,3′-dihydrospiro[cyclobutane-1,1′-pyrrolo[2,3-c]quinolin]-8′-yl)-2-(2-(isopropylamino)ethoxy)pyridin-3-yl)methanesulfonamide]	0.001 to 0.1 µM

Other lines, results leading:

IC50	Structure (SMILES)
> 0.1 µM	CC(C)NCCOc1ncc(-c2cc3c(cc2F)ncc2c3[C@]3(C[C@H](n4cccn4)C3)C(=O)N2C)cc1NS(C)(=O)=O [Example 476, cis-N-(5-(7′-Fluoro-3′-methyl-2′-oxo-3-(1H-pyrazol-1-yl)-2′,3′-dihydrospiro[cyclobutane-1,1′-pyrrolo[2,3-c]quinolin]-8′-yl)-2-(2-(isopropylamino)ethoxy)pyridin-3-yl)methanesulfonamide]
> 0.1 µM	CC(C)NCCOc1ncc(-c2cc3c(cc2F)ncc2c3[C@]3(C[C@@H](N4CCOCC4)C3)C(=O)N2C)cc1NS(C)(=O)=O [Example 472, trans-N-(5-(7′-Fluoro-3′-methyl-3-morpholino-2′-oxo-2′,3′-dihydrospiro[cyclobutane-1,1′-pyrrolo[2,3-c]quinolin]-8′-yl)-2-(2-(isopropylamino)ethoxy)pyridin-3-yl)methanesulfonamide]
